Data as given in PubChem BioAssay AID1963451 (Molecular Pharmacology Branch, DTP, NCI, 2024).

Test system: 521955-158-R6-J3-PDC complex spheroid growth, % test/control
Experiment: Anticancer human tumor 521955-158-R6-J3-PDC patient-derived pancreatic carcinoma cell line growth inhibition [Asc]
Details: for IC50: curve of first compound; for viability, T/C: stronger effect = lower value
How it was run: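 Spheroid model: tumor line + HUVEC + hMSC. Single agents and combinations; top conc. at/near clinical Cmax (10 microM if undetermined), half-log dilutions. DMSO stocks at 800-fold test concentration.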
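Further: spheroids exposed to compounds for 7 days.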
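Wherever viability, T/C is given: 100% = DMSO vehicle control wells.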

Compound: O=C(c1ccc(F)c(F)c1Nc1ccc(I)cc1F)N1CC(O)([C@@H]2CCCCN2)C1 + CCN1C(C(=O)NC23CCC(C(=O)O)(CC2)CC3)C(c2cccc(Cl)c2F)C2(C(=O)Nc3cc(Cl)ccc32)C12CCCCC2
- IC50 (second compound 0.00949 µM): 563 nM
- IC50 (second compound 0.03 µM): 587 nM
- IC50 (second compound 0.0949 µM): 389 nM
- IC50 (second compound 0.3 µM): 559 nM
- IC50 (second compound 0.949 µM): 380 nM
- IC50 (second compound 3 µM): 322 nM
- viability, T/C (second compound 0.00949 µM, first compound 0.00316 µM): 85.8%
- viability, T/C (second compound 0.00949 µM, first compound 0.01 µM): 102%
- viability, T/C (second compound 0.00949 µM, first compound 0.0316 µM): 134%
- viability, T/C (second compound 0.00949 µM, first compound 0.1 µM): 105%
- viability, T/C (second compound 0.00949 µM, first compound 0.316 µM): 65.1%
- viability, T/C (second compound 0.00949 µM, first compound 1 µM): 35%
- viability, T/C (second compound 0.03 µM, first compound 0.00316 µM): 113%
- viability, T/C (second compound 0.03 µM, first compound 0.01 µM): 106%
- viability, T/C (second compound 0.03 µM, first compound 0.0316 µM): 104%
- viability, T/C (second compound 0.03 µM, first compound 0.1 µM): 104%
- viability, T/C (second compound 0.03 µM, first compound 0.316 µM): 68.5%
- viability, T/C (second compound 0.03 µM, first compound 1 µM): 34%
- viability, T/C (second compound 0.0949 µM, first compound 0.00316 µM): 104%
- viability, T/C (second compound 0.0949 µM, first compound 0.01 µM): 111%
- viability, T/C (second compound 0.0949 µM, first compound 0.0316 µM): 114%
- viability, T/C (second compound 0.0949 µM, first compound 0.1 µM): 90.7%
- viability, T/C (second compound 0.0949 µM, first compound 0.316 µM): 53.5%
- viability, T/C (second compound 0.0949 µM, first compound 1 µM): 38.3%
- viability, T/C (second compound 0.3 µM, first compound 0.00316 µM): 121%
- viability, T/C (second compound 0.3 µM, first compound 0.01 µM): 117%
- viability, T/C (second compound 0.3 µM, first compound 0.0316 µM): 120%
- viability, T/C (second compound 0.3 µM, first compound 0.1 µM): 86.3%
- viability, T/C (second compound 0.3 µM, first compound 0.316 µM): 63.2%
- viability, T/C (second compound 0.3 µM, first compound 1 µM): 38.7%
- viability, T/C (second compound 0.949 µM, first compound 0.00316 µM): 118%
- viability, T/C (second compound 0.949 µM, first compound 0.01 µM): 115%
- viability, T/C (second compound 0.949 µM, first compound 0.0316 µM): 120%
- viability, T/C (second compound 0.949 µM, first compound 0.1 µM): 80%
- viability, T/C (second compound 0.949 µM, first compound 0.316 µM): 57.2%
- viability, T/C (second compound 0.949 µM, first compound 1 µM): 38.5%
- viability, T/C (second compound 3 µM, first compound 0.00316 µM): 103%
- viability, T/C (second compound 3 µM, first compound 0.01 µM): 112%
- viability, T/C (second compound 3 µM, first compound 0.0316 µM): 104%
- viability, T/C (second compound 3 µM, first compound 0.1 µM): 78.5%
- viability, T/C (second compound 3 µM, first compound 0.316 µM): 52.5%
- viability, T/C (second compound 3 µM, first compound 1 µM): 34.4%
